For eight compounds, SHP2% degradation results are on record in patent publication US20260144788A1, “COMPOUND FOR SHP2 PROTEIN DEGRADATION AND MEDICAL USES THEREOF” (UBIX THERAPEUTICS, INC., priority 2022, published 2026).

Experiment [1] has as its target T1, SHP2 protein (Homo sapiens, UniProt Q06124).
T1 sequence (Q06124 1-593): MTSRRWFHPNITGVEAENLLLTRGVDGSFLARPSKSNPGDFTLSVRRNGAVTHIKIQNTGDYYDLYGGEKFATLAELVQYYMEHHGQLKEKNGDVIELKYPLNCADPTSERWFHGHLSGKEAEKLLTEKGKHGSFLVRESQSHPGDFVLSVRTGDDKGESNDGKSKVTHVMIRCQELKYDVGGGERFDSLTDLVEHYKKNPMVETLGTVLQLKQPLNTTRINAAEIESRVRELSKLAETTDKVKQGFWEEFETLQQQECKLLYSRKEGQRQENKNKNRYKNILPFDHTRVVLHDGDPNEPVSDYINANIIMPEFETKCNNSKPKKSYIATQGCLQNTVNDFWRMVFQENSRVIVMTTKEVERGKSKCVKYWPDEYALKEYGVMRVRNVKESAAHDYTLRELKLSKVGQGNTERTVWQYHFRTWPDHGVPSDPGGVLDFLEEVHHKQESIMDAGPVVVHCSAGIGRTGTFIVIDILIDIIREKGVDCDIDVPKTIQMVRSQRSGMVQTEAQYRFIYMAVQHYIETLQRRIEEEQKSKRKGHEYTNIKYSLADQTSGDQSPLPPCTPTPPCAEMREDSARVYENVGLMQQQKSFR
Description: Measurement of SHP2 protein degradation in MV-4-11 cells (western blotting). The class given is cell-based. The conditions noted are these: harvested after 24 hours. More on the design: endogenous in cells. As for the experimental part:
MV-4-11 cells were treated with the synthesized Example compounds, and the amount of SHP2 protein present in the cells was measured using western blotting detection. The protocol for the experiment conducted using MV-4-11 cells is as follows.
[Culture] MV-4-11 cells were resuspended in IMDM MEDIUM (Hyclone, SH30228.01), 5% FBS (Hyclone, SV30207.02), 1% Penicillin-streptomycin (Welgene, LS 202-02) media and seeded at 1×10^6/mL in 12-well plates (1 mL each).
[Compound treatment]12-well plates were treated as follows. 10 mM stock dissolved in DMSO was serially diluted 1/100 or 1/10 with media, and the compounds were treated to the cells at a final concentration of 0.01, 0.1, 1 μM or 0.001, 0.01, 0.1 μM, and harvested after 24 hours. For the negative control group, DMSO diluted 1/100 or 1/1000 in media was added (3 μL DMSO+297 μL media or 1 μL DMSO+999 μL media).
[Harvest] Each well was pipetted with a 1 mL pipette, collected in a 1.5 mL microtube, and centrifuged (500 g, 5 min, 4° C.). The supernatant was removed, washed with PBS, and centrifuged again (500 g, 5 min, 4° C.). The supernatant was removed and a pellet was prepared.
[Cell lysis and sample preparation] Lysis buffer was prepared as follows. RIPA buffer (Biosesang, RC2038-050-00)+0.5 mM PMSF (SIGMA, P7626)+1× Protease/Phosphatase Inhibitor (Cell signaling, 5872S) were added at 50 μL per tube and incubated on ice for 30 minutes (vortexed at 0 and 30 minutes). After sonication (10 sec pulse, 30 sec rest, 5 cycles, 70% amplification) and centrifugation (15,000 g, 15 min, 4° C.), only the supernatant was transferred to a microtube. RIPA buffer 7.5 μL and sample 2.5 μL were added to a 96-well plate to dilute to 1/4, and then BCA Protein Assay Kit (iNtRON, 21071) A and B were mixed in a 50:1 ratio and 200 μL each was added. After that, the plate was incubated at 37° C. for 30 minutes and left at room temperature for 10 minutes. After shaking for 10 seconds with a SYNERGY H1 microplate reader from BioTek, the absorbance was measured at 562 nm. The protein was quantified using the measured value to prepare a sample, which was then incubated at 70° C. for 10 minutes. The sample buffer used at this time is a mixture of NuPAGE or Bolt 4× sample buffer (Invitrogen) and each 10× sample reducing agent according to the gel to be used, and RIPA buffer was used for protein dilution.
[Western blotting detection] Equal amounts of samples were loaded onto NuPAGE or Bolt Bis-tris 4-12% gradient gels and run (200 V, 35 min). This was transferred to […] NC membranes using Trans-blot Turbo (BIO-RAD) (1.3 A constant, 25 V limit, 15 min), and was blocked at room temperature for 1 hour with Skim milk or Intercept Blocking Buffer (LI-COR, 927-60001):0.1% TBST=1:1. Anti-SHPTP2 Mouse (1:500 in 2% BSA/0.2% TBST, size: 70 kDa, Santacruz sc-7384) was incubated overnight at 4° C., and Anti-GAPDH Rabbit (1:2,000 in 2% BSA/0.2% TBST, size: 37 kDa, CST #2118) was incubated at room temperature for 1.5 hours or 3 hours. After washing three times for 5 minutes each with 0.2% TBST washing buffer, secondary antibodies Anti-Mouse IgG (1:5,000 in 2% BSA/0.2% TBST, CST) and IRDye® 680RD Goat anti-Rabbit IgG Secondary Antibody (1:10,000 in 2% BSA/0.2% TBST, LI-COR 926-68071) were added, and incubated on a rocker at room temperature for 45 minutes. The resultants were washed five times for 5 minutes each with 0.2% TBST washing buffer, and detected using LI-COR's Odyssey. GAPDH was detected with a 700 nm channel, and SHPTP2 was detected using SuperSignal West Pico PLUS Chemiluminescent Substrate.
A general note: In western blotting, separated proteins are transferred to a membrane and probed.

Experiment [2] addresses T1, SHP2 protein. Description: Measurement of SHP2 protein degradation in NCI-H358 cells (western blotting). The class given is cell-based. More on the design: endogenous in cells; host or cells: NCI-H358. The conditions noted are these: harvested after 24 hours. An outline of the steps: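 H358 cells in RPMI1640/25 mM HEPES/10% FBS, cultured 24 h, then exposed to compound at final 0.001, 0.01 and 0.1 μM for 24 h against a DMSO control. Lysates were normalised for protein by BCA and probed by western blot for SHP2, with GAPDH as loading control.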

Consider `Cc1ncsc1-c1ccc(CNC(=O)[C@@H]2C[C@@H](O)CN2C(=O)[C@@H](NC(=O)C2(F)CC2)C(C)(C)C)c(OCCCCCCN2CCC(CNc3cccc(Sc4cnc(N5CCC(C)(CN)CC5)cn4)c3Cl)CC2)c1` [Example 1, (2S,4R)—N-(2-((6-(4-(((3-((5-(4-(aminomethyl)-4-methylpiperidin-1-yl)pyrazin-2-yl)thio)-2-chlorophenyl)amino)methyl)piperidin-1-yl)hexyl)oxy)-4-(4-methylthiazol-5-yl)benzyl)-1-((S)-2-(1-fluorocyclopropane-1-carboxamido)-3,3-dimethylbutanoyl)-4-hydroxypyrrolidine-2-carboxamide], for which the SHP2% degradation was −33.4% at SHP2 protein [1] (0.01 μM) and 6.5% on SHP2 protein [1] (0.1 μM).
For `Cc1ncsc1-c1ccc(CNC(=O)[C@@H]2C[C@@H](O)CN2C(=O)[C@@H](NC(=O)C2(F)CC2)C(C)(C)C)c(OCCN2CCN(CCNc3cccc(Sc4cnc(N5CCC(C)(CN)CC5)cn4)c3Cl)CC2)c1` [Example 2, (2S,4R)—N-(2-(2-(4-(2-((3-((5-(4-(aminomethyl)-4-methylpiperidin-1-yl)pyrazin-2-yl)thio)-2-chlorophenyl)amino)ethyl)piperazin-1-yl)ethoxy)-4-(4-methylthiazol-5-yl)benzyl)-1-((S)-2-(1-fluorocyclopropane-1-carboxamido)-3,3-dimethylbutanoyl)-4-hydroxypyrrolidine-2-carboxamide], the SHP2% degradation at SHP2 protein [1] (0.01 μM) was 11.8%; at SHP2 protein [1] (0.1 μM) it was 80.3%.
`Cc1ncsc1-c1ccc(CNC(=O)[C@@H]2C[C@@H](O)CN2C(=O)[C@@H](NC(=O)C2(F)CC2)C(C)(C)C)c(OCCN2CCN(CCNc3cccc(Sc4cnc(N5CCC(C)(CN)CC5)cn4)c3Cl)C(=O)C2)c1` [Example 3, (2S,4R)—N-(2-(2-(4-(2-((3-((5-(4-(aminomethyl)-4-methylpiperidin-1-yl)pyrazin-2-yl)thio)-2-chlorophenyl)amino)ethyl)-3-oxopiperazin-1-yl)ethoxy)-4-(4-methylthiazol-5-yl)benzyl)-1-((S)-2-(1-fluorocyclopropane-1-carboxamido)-3,3-dimethylbutanoyl)-4-hydroxypyrrolidine-2-carboxamide]: the SHP2% degradation was found to be 19% at SHP2 protein [1] (0.01 μM) and 90.3% at SHP2 protein [1] (0.1 μM).
For `Cc1cn([C@H](C(=O)N2C[C@H](O)C[C@H]2C(=O)NCc2ccccc2OC2CCN(C(=O)C3CCN(c4nccc(Sc5cnc(N6CCC7(CC6)CO[C@@H](C)[C@H]7N)c(CO)n5)c4Cl)CC3)CC2)C(C)C)nn1` [Example 111, (2S,4R)—N-(2-((1-(1-(4-((5-((3S,4S)-4-amino-3-methyl-2-oxa-8-azaspiro[4.5]decan-8-yl)-6-(hydroxymethyl)pyrazin-2-yl)thio)-3-chloropyridin-2-yl)piperidine-4-carbonyl)piperidin-4-yl)oxy)benzyl)-4-hydroxy-1-((S)-3-methyl-2-(4-methyl-1H-1,2,3-triazol-1-yl)butanoyl)pyrrolidine-2-carboxamide], the values for the SHP2% degradation at SHP2 protein [2] (0.01 μM) and on SHP2 protein [2] (0.1 μM) were 98.0% and 99.9%, respectively.
For `Cc1cn([C@H](C(=O)N2C[C@H](O)C[C@H]2C(=O)NCc2ccc(Cl)cc2OC2CCN(C(=O)C3CCN(c4nccc(Sc5cnc(N6CCC7(CC6)CO[C@@H](C)[C@H]7N)c(CO)n5)c4Cl)CC3)CC2)C(C)C)nn1` [Example 112, (2S,4R)—N-(2-((1-(1-(4-((5-((3S,4S)-4-amino-3-methyl-2-oxa-8-azaspiro[4.5]decan-8-yl)-6-(hydroxymethyl)pyrazin-2-yl)thio)-3-chloropyridin-2-yl)piperidine-4-carbonyl)piperidin-4-yl)oxy)-4-chlorobenzyl)-4-hydroxy-1-((S)-3-methyl-2-(4-methyl-1H-1,2,3-triazol-1-yl)butanoyl)pyrrolidine-2-carboxamide] the same measures were 93.8% and 99.7%.
For `Cc1cn([C@H](C(=O)N2C[C@H](O)C[C@H]2C(=O)NCc2ccc(C#N)cc2OC2CCN(C(=O)C3CCN(c4nccc(Sc5cnc(N6CCC7(CC6)CO[C@@H](C)[C@H]7N)c(CO)n5)c4Cl)CC3)CC2)C(C)C)nn1` [Example 113, (2S,4R)—N-(2-((1-(1-(4-((5-((3S,4S)-4-amino-3-methyl-2-oxa-8-azaspiro[4.5]decan-8-yl)-6-(hydroxymethyl)pyrazin-2-yl)thio)-3-chloropyridin-2-yl)piperidine-4-carbonyl)piperidin-4-yl)oxy)-4-cyanobenzyl)-4-hydroxy-1-((S)-3-methyl-2-(4-methyl-1H-1,2,3-triazol-1-yl)butanoyl)pyrrolidine-2-carboxamide] the same measures were 96.2% and 99.8%.
For `Cc1cc(C(C(=O)N2C[C@H](O)C[C@H]2C(=O)NCc2ccc(-c3scnc3C)cc2O[C@H]2CC[C@H](C(=O)N3CC(Nc4cccc(Sc5cnc(N6CCC(C)(CN)CC6)cn5)c4Cl)C3)CC2)C(C)C)on1` (stereo partly drawn) [Example 114, (2S,4R)—N-(2-(((1R,4S)-4-(3-((3-((5-(4-(aminomethyl)-4-methylpiperidin-1-yl)pyrazin-2-yl)thio)-2-chlorophenyl)amino)azetidine-1-carbonyl)cyclohexyl)oxy)-4-(4-methylthiazol-5-yl)benzyl)-4-hydroxy-1-(3-methyl-2-(3-methylisoxazol-5-yl)butanoyl)pyrrolidine-2-carboxamide] the same measures were 48.3% and 88.1%.
As for `Cc1cc(C(C(=O)N2C[C@H](O)C[C@H]2C(=O)NCc2ccc(-c3scnc3C)cc2O[C@H]2CC[C@H](C(=O)N3CC(Nc4cccc(Sc5cnc(N6CCC(C)(CN)CC6)cn5)c4Cl)C3)CC2)C(C)C)on1` (stereo partly drawn) [Example 115, (2S,4R)—N-(2-(((1R,4S)-4-(3-((3-((5-(4-(aminomethyl)-4-methylpiperidin-1-yl)pyrazin-2-yl)thio)-2-chlorophenyl)amino)azetidine-1-carbonyl)cyclohexyl)oxy)-4-(4-methylthiazol-5-yl)benzyl)-4-hydroxy-1-(3-methyl-2-(3-methylisoxazol-5-yl)butanoyl)pyrrolidine-2-carboxamide], the SHP2% degradation at SHP2 protein [2] (0.01 μM) is 98.3%; at SHP2 protein [2] (0.1 μM), 99.2%.
